Numbers after ± are expanded uncertainties.
What was measured:
[1] = 293.15 K; 101.33 kPa; Liquid
[2] = refractive index (Na D-line) (dimensionless); details: 293.15 K; 101.33 kPa; Liquid

| SMILES | mass density [1] | refractive index [2] |
| --- | --- | --- |
| CC(=O)c1ccccc1 [acetophenone] | 1027.93 ± 0.46 kg/m3 | 1.5336 ± 0.0013 |
| CCOC(=O)OCC [diethyl carbonate] | 974.65 ± 0.29 kg/m3 | 1.3845 ± 0.0012 |
| CCCCCCO [hexan-1-ol] | 818.84 ± 0.75 kg/m3 | 1.4178 ± 0.0013 |
